Structures are written as SMILES. Numbers after ± are expanded uncertainties.

The conditions of this series: 298.15 K, 101.8 kPa, Liquid; for viscosity: Falling or rolling sphere viscometry; for mass density: Vibrating tube method.

The viscosity is the resistance of a fluid to flow. Usually mass density stands for mass per unit of volume. In the case of `CC1=CCC(C(C)C)=CC1` [1-methyl-4-(1-methylethyl)-1,4-cyclohexadiene], the viscosity is recorded as 1.144 ± 0.031 mPa·s and the mass density is 844.9 ± 1.9 kg/m3.
On to `C=CC(C)(O)CCC=C(C)C` (stereo unspecified) [3,7-dimethyl-1,6-octadien-3-ol], for which the viscosity was 4.349 ± 0.092 mPa·s and the mass density was determined as 857.28 ± 1 kg/m3.
Taken in the same sequence, the figures for `CC(C)=CCCC(C)=CC=O` [3,7-dimethyl-2,6-octadienal (cis+trans)] were 2.019 ± 0.043 mPa·s and 883.42 ± 1 kg/m3.
Consider `C=C1CC[C@H]2C[C@@H]1C2(C)C` [(1S,5S)-6,6-dimethyl-2-methylenebicyclo[3.1.1]heptane], for which the viscosity is given as 1.616 ± 0.034 mPa·s and the mass density was found to be 866.93 ± 1 kg/m3.
For the compound `C=C(C)[C@H]1CC=C(C)CC1` [(R)-1-methyl-4-(1-methylethenyl)cyclohexene], the viscosity turned out to be 0.8599 ± 0.022 mPa·s and the mass density was found to be 838.59 ± 1.6 kg/m3.
Consider `CCO` [ethanol], for which the viscosity came to 1.125 ± 0.024 mPa·s and the mass density was determined as 785.07 ± 1 kg/m3.
In the case of `C=C(C)[C@@H]1CC=C(C)C(=O)C1` [l-carvone], the viscosity was determined as 2.456 ± 0.052 mPa·s and the mass density is recorded as 958.79 ± 1 kg/m3.
Regarding `C=CC(C)(CCC=C(C)C)OC(C)=O` (stereo unspecified) [linalool acetate], the viscosity was 2.291 ± 0.049 mPa·s and the mass density is given as 898.64 ± 1 kg/m3.

(Values after the NIST ThermoML archive (doi:10.1016/j.jct.2013.11.026).)
